From patent publication US8895746B2 (University of Central Florida Research Foundation, Inc., priority 2009, dated 2014)
Where “and” joins values, the source holds several entries; their conditions need not be identical. Identical values can stand only once.

Experiments:
[1] = target: T1, Stat3 SH2 domain (Mus musculus, UniProt P42227); test: EMSA of Stat3 DNA-binding with added purified His-tagged Stat3 SH2 domain; assay type: biochemical, murine; settings: 1-500 ng His-SH2; full recovery at 125-500 ng
T1 construct: Purified histidine-tagged Stat3 SH2 domain (His-SH2) was added at increasing concentrations (1-500 ng); SUMO (vector pET SUMO); made in house; host or cells: E. coli BL21(DE3)
T1 sequence (P42227 580-670 limits assumed): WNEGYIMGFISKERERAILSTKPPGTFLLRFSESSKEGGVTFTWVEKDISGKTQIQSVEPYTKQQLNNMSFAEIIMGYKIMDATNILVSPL
Description: (§1) Coding regions for the murine Stat3 protein and Stat3 SH2 domain were amplified by PCR and cloned into vectors pET-44 Ek/LIC (Novagen) and pET SUMO (Invitrogen), respectively.

[2] = test system: NIH3T3/v-Ras; test: Colony survival assay; assay type: cell-based, mouse
Protocol: (§2) This was performed as previously reported (39). […] Colonies were stained with crystal violet for 4 h and counted under phase-contrast microscope.
(§3) Cultured single-cells were untreated or treated once with S3I-201.1066 and allowed to grow until large colonies were visible, which were stained and enumerated.

[3] = test system: c-Myc, Bcl-xL, VEGF, and MMP-9 proteins; test: Immunoblotting of Stat3-regulated gene products in MDA-MB-231 and Panc-1 cells; assay type: cell-based, human; settings: 48 h-treatment
Protocol: (§4) Immunoprecipitation from whole-cell lysates and SDS/PAGE and Western blotting analysis were performed as previously described (33,38).
Known Stat3 downstream target genes are key in the dysregulated biological processes promoted by aberrant Stat3 (9, 20, 42).

[4] = test system: Stat3-null MEFs (Stat3−/−); test: CyQuant cell viability; assay type: cell-based, mouse
Description: (§5) Aberrant Stat3 promotes malignant cell proliferation, survival and malignant transformation (10, 20, 42). Given that S3I201.1066 disrupts Stat3 activation, we asked the question whether this agent is able to selectively decrease the viability and growth of malignant cells that harbor aberrant Stat3 activity.

[5] = test system: NIH3T3; test: CyQuant cell viability; assay type: cell-based, mouse
Description: as §5

[6] = test system: NIH3T3/v-Src, Panc-1 and MDA-MB-231 cells; test: Colony survival assay; assay type: cell-based, mouse, human; settings: treated once
Protocol: as §2, §3

[7] = test system: pTyr705Stat3; test: Western blot of pTyr705Stat3 in NIH3T3/v-Src and Panc-1 cells; assay type: cell-based, mouse, human; settings: 24 h
Protocol: as §4

[8] = target: T2, Stat3 association with EGFR (Homo sapiens, UniProt P40763); test: Co-immunoprecipitation of EGFR immunecomplex from treated Panc-1 and MDA-MB-231 cells; assay type: cell-based
T2 construct: immunoprecipitated from whole-cell lysates prepared from treated and untreated cancer cells and blotted for Stat3; endogenous in cells; host or cells: Panc-1 and MDA-MB-231 cells
T2 sequence (P40763 2-770 limits assumed): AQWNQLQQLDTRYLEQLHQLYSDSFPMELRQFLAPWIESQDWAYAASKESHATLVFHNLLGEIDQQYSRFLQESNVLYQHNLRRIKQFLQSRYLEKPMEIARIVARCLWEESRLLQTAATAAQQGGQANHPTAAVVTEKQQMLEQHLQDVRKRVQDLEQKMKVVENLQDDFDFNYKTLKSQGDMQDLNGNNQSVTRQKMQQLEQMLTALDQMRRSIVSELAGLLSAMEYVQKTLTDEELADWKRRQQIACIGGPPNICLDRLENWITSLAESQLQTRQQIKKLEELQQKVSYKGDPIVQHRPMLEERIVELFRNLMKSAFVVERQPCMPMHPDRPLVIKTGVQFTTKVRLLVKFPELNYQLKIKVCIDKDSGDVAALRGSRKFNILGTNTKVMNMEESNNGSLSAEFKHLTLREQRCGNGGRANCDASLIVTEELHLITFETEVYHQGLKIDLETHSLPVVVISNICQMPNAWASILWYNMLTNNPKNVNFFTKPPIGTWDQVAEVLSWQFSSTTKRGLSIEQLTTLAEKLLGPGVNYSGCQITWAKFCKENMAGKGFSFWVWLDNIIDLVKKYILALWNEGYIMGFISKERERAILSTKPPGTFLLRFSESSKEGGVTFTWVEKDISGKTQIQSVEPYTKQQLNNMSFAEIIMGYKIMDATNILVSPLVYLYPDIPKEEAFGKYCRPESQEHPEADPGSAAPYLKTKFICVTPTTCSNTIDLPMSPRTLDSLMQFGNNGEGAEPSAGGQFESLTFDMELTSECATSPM
Protocol: as §4
Cells were then subjected to immunostaining for EGFR (red) and Stat3 (green) and analyzed by confocal microscopy for EGF-induced colocalization of Stat3 and EGFR and for Stat3 nuclear translocation, as previously performed (17). In the resting NIH3T3/hEGFR fibroblasts, EGFR (red) is widely localized at the plasma membrane, while Stat3 (green) is localized at both the plasma membrane and in the cytoplasm, with a minimal colocalization with EGFR at the plasma membrane and no visible presence in the nucleus (stained blue for DAPI) (FIG. 4A upper panel).

[9] = test system: mouse thymus epithelial stromal cells (TE71); test: CyQuant cell viability; assay type: cell-based
Description: as §5

[10] = test system: normal human pancreatic duct epithelial cells (HPDEC); test: CyQuant cell viability; assay type: cell-based
Description: as §5

[11] = test system: NIH3T3/v-Src, MDA-MB-231 and Panc-1 cells; test: Soft-agar colony formation assay; assay type: cell-based, mouse, human
Protocol: Colony formation assays were carried out in 6-well dishes, as described previously (16,37). Briefly, each well contained 1.5 ml of 1% agarose in Dulbeco's modified Eagle's medium as the bottom layer and 1.5 ml of 0.5% agarose in Dulbeco's modified Eagle's medium containing 4000 or 6000 NIH3T3/v-Src or NIH3T3/v-Ras fibroblasts, respectively, as the top layer. Treatment with S3I201.1066 was initiated 1 day after seeding cells by adding 80 μl of medium with or without S3I20.1.1066, and repeating every 3 days, until large colonies were evident. Colonies were quantified by staining with 20 μl of 1 mg/ml crystal violet, incubating at 37° C. overnight, and counting the next day under phase contrast microscope.

[12] = target: Stat3 (Mus musculus, UniProt P42227); test: Fluorescence Polarization assay, Stat3 binding to 5-carboxyfluorescein-GpYLPQTV-NH2 probe; parameters: Coding regions for the murine Stat3 protein; made in house; host or cells: E. coli BL21(DE3); species or system murine; settings: IC50, disruption of Stat3 binding to pTyr peptide probe, 150 nM Stat3, 10 nM probe
Stat3, sequence (P42227 whole entry): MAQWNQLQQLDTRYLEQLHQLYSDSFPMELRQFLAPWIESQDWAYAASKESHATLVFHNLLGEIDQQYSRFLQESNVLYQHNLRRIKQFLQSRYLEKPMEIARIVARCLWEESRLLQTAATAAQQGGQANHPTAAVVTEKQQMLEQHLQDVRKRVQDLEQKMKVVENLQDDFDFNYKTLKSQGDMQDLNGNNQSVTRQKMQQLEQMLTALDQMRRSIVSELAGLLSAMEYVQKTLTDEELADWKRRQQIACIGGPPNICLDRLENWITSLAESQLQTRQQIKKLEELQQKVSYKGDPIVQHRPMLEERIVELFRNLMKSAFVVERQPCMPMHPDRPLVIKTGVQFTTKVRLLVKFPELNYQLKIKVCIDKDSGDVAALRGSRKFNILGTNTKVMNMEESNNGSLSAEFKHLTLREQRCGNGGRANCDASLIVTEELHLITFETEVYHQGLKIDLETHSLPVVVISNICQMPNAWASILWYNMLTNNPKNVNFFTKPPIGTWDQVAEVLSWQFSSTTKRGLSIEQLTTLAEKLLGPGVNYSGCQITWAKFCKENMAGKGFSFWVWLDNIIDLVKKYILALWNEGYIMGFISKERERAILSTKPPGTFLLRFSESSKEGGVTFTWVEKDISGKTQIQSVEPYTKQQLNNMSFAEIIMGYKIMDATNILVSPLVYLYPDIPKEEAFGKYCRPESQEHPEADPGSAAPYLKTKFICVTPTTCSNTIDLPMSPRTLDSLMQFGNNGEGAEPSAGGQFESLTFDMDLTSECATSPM
Protocol: as §1
Fluorescence Polarization (FP) Assay was conducted as previously reported (23), with some modification using the phospho-peptide, 5-carboxyfluorescein-GpYLPQTV-NH2 (phosphorylated SEQ ID NO:7) (where pY represents phospho-Tyr) as probe and Stat3. The FP assay was used to evaluate the binding of agents to Stat3 and to determine the ability to disrupt the Stat3:pTyr peptide interaction. A fixed concentration of the fluorescently-labeled peptide probe (10 nM) was incubated with increasing concentration of the Stat3 protein for 30 min at room temperature in the buffer, 50 mM NaCI, 10 mM HEPES, 1 mM EDTA, 0.1% Nonidet P-40, and the fluorescent polarization measurements were determined using the POLARstar Omega (BMG LABTECH, Durham, N.C.), with the set gain adjustment at 35 mP. The Z′ value was derived per the equation Z′=1−(3 SDbound+3 SD free)/(mPbound−mPfree), where SD is the standard deviation and mP is the average of fluorescence polarization. In the bound state, 10 nM 5-carboxyfluorescein-GpYLPQTV-NH2 (phosphorylated SEQ ID NO:7) was incubated with 150 nM purified Stat3 protein, while the free (unbound) state was the same mixture, but incubated with an additional 10 IJM unlabeled Ac-GpYLPQTV-NH2 (phosphorylated SEQ ID NO:7). For evaluating agents, Stat3 protein (150 nM) was incubated with serial concentrations of S31-201.1066 at 30° C. for 60 min in the indicated assay buffer conditions. Prior to the addition of the fluorescence probe, the protein:S31-201.1066 mixtures were allowed to equilibrate at room temperature for 15 min. Probe was added at a final concentration of 10 nM and incubated for 30 min at room temperature following which the FP measurements were taken using the POLARstar Omega, with the set gain adjustment at 35 mP.
The FP assay was used to further test the computational modeling prediction of the ability of S31-201.1066 to disrupt Stat3 interaction with its cognate pTyr peptide.

Cc1ccc(S(=O)(=O)N(C)CC(=O)N(Cc2ccc(C3CCCCC3)cc2)c2ccc(C(=O)O)c(O)c2)cc1 [S3I-201.1066]
inhibition of Stat3 DNA-binding activity in presence of increasing purified His-SH2 domain [1]: progressively eliminated | colony numbers, colony survival [2]: minimal effect | expression of c-Myc, Bcl-xL, VEGF, and MMP-9 proteins [3]: significantly suppressed | derived IC60 values, viability [4]: > 200 μMm | derived IC60 values, viability [5]: > 200 μMm | number of colonies, colony survival [6]: dose-dependent suppression | pTyr705Stat3 levels [7]: concentration-dependent reduction | Shc or Grb 2 levels associated with EGFR in the complex [8]: without affecting | level of Stat3 associated with EGFR in the immunecomplex [8]: significantly diminished | levels of activated and total Erk1/2 in whole-cell lysates [8]: unaffected | derived IC60 values, viability [9]: > 200 μMm | derived IC60 values, viability [10]: > 200 μMm | growth in soft-agar suspension [11]: significantly inhibited | IC50 [12]: 45 µM and 23 µM and 20 µM
